Biological target: GTPase KRas [G12C,C51S,C80L,C118S]/RAF proto-oncogene serine/threonine-protein kinase (Homo sapiens, UniProt P01116, C118S/C51S/C80L/G12C)
Experiment: Inhibition of KRASG12C and cRAF Binding
Method: Compounds were diluted in 100% DMSO and each compound concentration was spotted at 200 nl/well onto low volume, white 384 well plates. […] Plates were incubated for 19-20 hours. A mixture of RBD and the AlphaScreen streptavidin donor and glutathione acceptor beads diluted in 25 mM Hepes, pH 7.4, 150 mM NaCl, 5 mM MgCl2, 0.01% TritonX-100 and 2% DMSO was then added at 10 ul/well and incubated for 60-90 minutes before the samples were read for emission at 570 nm after excitation of the donor beads at 680 nm. All incubations were performed at room temperature. […] IC50s were determined using nonlinear regression fit of [inhibitor]vs. response (4 parameters).

Chain of GTPase KRas [G12C,C51S,C80L,C118S]/RAF proto-oncogene serine/threonine-protein kinase (P01116 1-169 G12C/C51S/C80L/C118S): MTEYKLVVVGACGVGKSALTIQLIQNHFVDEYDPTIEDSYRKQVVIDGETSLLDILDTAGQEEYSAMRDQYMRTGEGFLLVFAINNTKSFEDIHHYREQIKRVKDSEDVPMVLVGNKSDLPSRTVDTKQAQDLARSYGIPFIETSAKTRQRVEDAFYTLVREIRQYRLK

Question: `C=CC(=O)[C@]12CCN(c3nc(OC[C@@H]4CCCN4C)nc4c3CCN(c3cccc5cccc(Cl)c35)C4)C[C@H]1C2` [US20250019387, Example 44] was tested. Which IC50 did it give?
Answer: The IC50 was under 10 nM.

— BindingDB's records for patent US20250019387 (Frontier Medicines, 2025)
